The source of these data is US10940139B2, “Compounds that interact with the Ras superfamily for the treatment of cancers, inflammatory diseases, rasopathies, and fibrotic disease” (Shy Therapeutics LLC, priority 2017, dated 2021).

Assay [1] has as its target KRas G12D/Q61H double mutant (Homo sapiens (Human), UniProt P01116, G12D/Q61H). Put plainly: Ras GTP binding domain inhibition assay (labeled GTP). Conditions: at 20 μM; read-out: KRas G12D Q61H % Inh. Summed up: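 Inhibition of labeled GTP binding is measured on immobilized His-KRas protein in Tris buffer pH 7.5 with 1 mM MgCl2 and 1 mM DTT.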
The target of another assay is Rac-1 (Homo sapiens (Human), UniProt P63000). As to the kind of experiment: Rac inhibition assay (labeled GTP). Format: binding. Conditions: read-out: Rac-1 % Inh.
A further assay concerns the target Rho-A (Homo sapiens (Human), UniProt P61586). Put plainly: Rho inhibition assay (labeled GTP). Format: binding. Conditions: read-out: Rho-A % Inh.

Rho-A, sequence (P61586 whole entry): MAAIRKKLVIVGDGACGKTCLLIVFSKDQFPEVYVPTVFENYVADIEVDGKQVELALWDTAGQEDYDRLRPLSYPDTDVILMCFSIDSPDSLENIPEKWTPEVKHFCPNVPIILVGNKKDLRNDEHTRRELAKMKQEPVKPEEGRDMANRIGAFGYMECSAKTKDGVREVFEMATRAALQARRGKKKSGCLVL
KRas G12D/Q61H double mutant, sequence (P01116-2 other isoform, or with tags, fused parts or gaps G12D/Q61H): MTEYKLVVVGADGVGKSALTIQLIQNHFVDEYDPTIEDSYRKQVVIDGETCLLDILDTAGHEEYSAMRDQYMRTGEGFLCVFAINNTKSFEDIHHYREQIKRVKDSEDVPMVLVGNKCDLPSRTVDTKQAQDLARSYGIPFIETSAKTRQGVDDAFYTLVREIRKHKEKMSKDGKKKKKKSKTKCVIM

With `COc1ccc(N2CCN(C(=O)c3csc4c(O)nc(-c5ccccn5)nc34)CC2)cc1O` [drawing 3691], the inhibition at 20 µM was in the range of 1 to 25% in assay [1], 76 to 100% on Rac-1 and 76 to 100% at Rho-A.

Take `O=C(NCCc1cccnc1)c1cc2nc(-c3ccccn3)nc(O)c2s1` [drawing 3715]: the inhibition at 20 µM in assay [1] lay within 25 to 50%; on Rac-1, 76 to 100%; on Rho-A it was 76 to 100%.

In the case of `Nc1nc(-c2ccccn2)nc2scc(Br)c12` [drawing 3766], the inhibition at 20 µM in assay [1] was in the range of 25 to 50%; at Rac-1, 51 to 75%; at Rho-A, 51 to 75%.

For the compound `CC(C)(C)c1ccc(-c2csc3c(O)nc(-c4ccccn4)nc23)cc1` [drawing 3719], the inhibition at 20 µM (in assay [1]; on Rac-1; on Rho-A) was 51 to 75% each time.

For the compound `Cc1sc2c(O)nc(-c3ccccn3)nc2c1C(=O)N1CCN(c2ccccc2)CC1` [drawing 3827], the inhibition at 20 µM was in the range of 25 to 50% in assay [1], 76 to 100% at Rac-1 and 76 to 100% on Rho-A.

With `O=C(NCCc1cccnc1)c1csc2nc(-c3ccccn3)nc(N3CCOCC3)c12` [drawing 3633], the inhibition at 20 µM in assay [1] was 1 to 25%; on Rac-1 it was 51 to 75%; at Rho-A, 51 to 75%.

Take `Nc1nc(O)c2sc(-c3cccc(C(=O)NCc4cccc(O)n4)c3)cc2n1` [drawing 3864]: the results for the inhibition at 20 µM (in assay [1]; on Rac-1; on Rho-A) were 0%, 1 to 25% and 0%, respectively.

`COc1cc(N2CCN(C(=O)c3csc4c(O)nc(-c5ccccn5)nc34)CC2)cc(OC)c1OC` [drawing 3647]: the inhibition at 20 µM was 0% in assay [1], 1 to 25% at Rac-1 and 25 to 50% on Rho-A.

As for `COc1ccc(-c2cc3nc(-c4ccccn4)nc(O)c3s2)cc1` [drawing 3881], the inhibition at 20 µM is 1 to 25% in assay [1], 0% at Rac-1 and 1 to 25% on Rho-A.

As for `CNS(=O)(=O)CCCNC(=O)c1csc2nc(-c3ccccn3)nc(N3CCOCC3)c12` [drawing 3680], the inhibition at 20 µM in assay [1] is 1 to 25%; at Rac-1, 76 to 100%; at Rho-A it was 51 to 75%.

In the case of `COc1ccccc1C1CN(C(=O)c2csc3c(O)nc(-c4ccccn4)nc23)CCO1` (stereo not drawn) [drawing 3656], the inhibition at 20 µM in assay [1] was 51 to 75%; on Rac-1, 76 to 100%; at Rho-A it was 76 to 100%.

Regarding `Oc1nc(-c2ccccn2)nc2c(C3CCCCC3)csc12` [drawing 3830], the figures for the inhibition at 20 µM (in assay [1]; at Rac-1; on Rho-A) were 25 to 50%, 25 to 50% and 51 to 75%, respectively.

With `COc1cnc(C(C)(C)N)nc1O` [drawing 3810], the inhibition at 20 µM is 1 to 25% in assay [1], 1 to 25% at Rac-1 and 0% on Rho-A.

As for `COc1ccnc(-c2nc(O)c3c(CN)csc3n2)c1`, the inhibition at 20 µM in assay [1] was 0%; at Rac-1, 51 to 75%; on Rho-A it was 25 to 50%.

Consider `Oc1nc(-c2ccccn2)nc2c3c(sc12)CNC3` [drawing 3796], for which the inhibition at 20 µM in assay [1] lay in the range of 51 to 75%; at Rac-1, 76 to 100%; on Rho-A, 76 to 100%.

On to `O=C(c1csc2c(O)nc(-c3ccccn3)nc12)N1CCOC(c2nccs2)C1` (stereo not drawn) [drawing 3631], for which the inhibition at 20 µM in assay [1] lay within 25 to 50%; at Rac-1 it was 76 to 100%; on Rho-A, 76 to 100%.

For the compound `OCC1(c2ccc(-c3nc(-c4ccccn4)nc(-c4ccc(C5(CO)CC5)cc4)c3Oc3ccccc3)cc2)CC1` [drawing 3850], the inhibition at 20 µM in assay [1] was in the range of 1 to 25%; at Rac-1 it was 25 to 50%; on Rho-A, 25 to 50%.

With `COc1ccncc1CCNC(=O)c1csc2nc(-c3ccccn3)nc(N3CCOCC3)c12` [drawing 3669], the inhibition at 20 µM in assay [1] is 1 to 25%; on Rac-1, 51 to 75%; at Rho-A, 25 to 50%.

As to `COc1nc(-c2ccccn2)nc2c(C3CC3)csc12` [drawing 3808], the inhibition at 20 µM in assay [1] is 1 to 25%; on Rac-1, 0%; at Rho-A, 0%.

As for `O=C(c1csc2c(O)nc(-c3ccccn3)nc12)N1CCNC(Cc2cccc(F)c2)C1` (stereo not drawn) [drawing 3704], the inhibition at 20 µM (in assay [1]; on Rac-1; on Rho-A) was 51 to 75% each time.

As for `O=C(NCCc1ccncc1)c1csc2nc(-c3ccccn3)nc(N3CCOCC3)c12` [drawing 3668], the inhibition at 20 µM in assay [1] was 0%; on Rac-1, 76 to 100%; on Rho-A, 51 to 75%.

With `Cn1cnc(-c2nc(O)c3c(-c4ccccc4)c(-c4ccc(CNC(=O)OC(C)(C)C)cc4)sc3n2)c1` [drawing 3855], the inhibition at 20 µM lay within 1 to 25% in assay [1], 25 to 50% at Rac-1 and 25 to 50% at Rho-A.

In the case of `O=C(NCCc1ccnc(O)n1)c1csc2nc(-c3ccccn3)nc(N3CCOCC3)c12` [drawing 3770], the values for the inhibition at 20 µM (in assay [1]; at Rac-1; at Rho-A) were 1 to 25%, 51 to 75% and 51 to 75%, respectively.

With `O=C(NCCc1cncs1)c1csc2nc(-c3ccccn3)nc(N3CCOCC3)c12` [drawing 3638], the figures for the inhibition at 20 µM (in assay [1]; at Rac-1; at Rho-A) were 1 to 25%, 51 to 75% and 25 to 50%, respectively.

As for `CC(C(=O)Nc1nc(-c2ccccn2)nc2sccc12)c1ccc(C#N)cc1` (stereo not drawn) [drawing 3687], the inhibition at 20 µM in assay [1] lay within 1 to 25%; at Rac-1, 76 to 100%; on Rho-A, 76 to 100%.

Consider `Oc1nc(-c2ccccn2)nc2c(-c3cncnc3)csc12` [drawing 3823], for which the inhibition at 20 µM (in assay [1]; on Rac-1; on Rho-A) was 1 to 25% throughout.

Turning to `Oc1nc(-c2ccccn2)nc2c(-c3cncc(C(F)F)c3)csc12` [drawing 3826], the inhibition at 20 µM in assay [1] was 1 to 25%; at Rac-1 it was 1 to 25%; at Rho-A, 0%.

As for `Oc1nc(-c2ccccn2)nc2c(-c3ccc(OC4CCCC4)cc3)csc12` [drawing 3735], the inhibition at 20 µM (in assay [1]; on Rac-1; on Rho-A) was 25 to 50% in each case.

With `Nc1nc(O)c2sc(-c3cccc(C(=O)N4CCC(O)C4)c3)cc2n1` (stereo not drawn) [drawing 3861], the inhibition at 20 µM (in assay [1]; at Rac-1; on Rho-A) was 1 to 25% throughout.

Take `Cc1cc(OC(F)F)ccc1-c1csc2c(O)nc(-c3ccccn3)nc12` [drawing 3750]: the inhibition at 20 µM in assay [1] lay within 25 to 50%; at Rac-1, 25 to 50%; on Rho-A, 1 to 25%.

As for `Nc1nc(O)c2sc(-c3cccc(C(=O)NCc4ncc[nH]4)c3)cc2n1` [drawing 3863], the inhibition at 20 µM (in assay [1]; at Rac-1; at Rho-A) was 0% throughout.

With `O=C(NCCc1nnn[nH]1)c1csc2nc(-c3ccccn3)nc(N3CCOCC3)c12` [drawing 3675], the figures for the inhibition at 20 µM (in assay [1]; on Rac-1; at Rho-A) were 1 to 25%, 76 to 100% and 51 to 75%, respectively.

In the case of `O=C(c1csc2c(O)nc(-c3ccccn3)nc12)N1CCN(Cc2cccc(O)c2)CC1` [drawing 3629], the inhibition at 20 µM (in assay [1]; on Rac-1; on Rho-A) was 76 to 100% in each case.

Turning to `Cc1ccc(OC2CCCC2)c(-c2csc3c(O)nc(-c4ccccn4)nc23)c1` [drawing 3716], the inhibition at 20 µM (in assay [1]; on Rac-1; on Rho-A) was 51 to 75% each time.

Consider `Cc1sc2c(N)nc(-c3ccccn3)nc2c1-c1ccccc1` [drawing 3709], for which the inhibition at 20 µM (in assay [1]; on Rac-1; on Rho-A) was 25 to 50% in each case.

For `O=C(NCCc1cnc(O)nc1)c1csc2nc(-c3ccccn3)nc(N3CCS(=O)(=O)CC3)c12` [drawing 3726], the inhibition at 20 µM in assay [1] was in the range of 25 to 50%; at Rac-1, 51 to 75%; at Rho-A, 51 to 75%.

Take `CCn1nc(C)cc1-c1csc2c(O)nc(-c3ccccn3)nc12` [drawing 3775]: the inhibition at 20 µM in assay [1] was 51 to 75%; at Rac-1, 51 to 75%; at Rho-A, 76 to 100%.

`COc1ccc(CCNC(=O)c2csc3nc(-c4ccccn4)nc(N4CCOCC4)c23)cn1` [drawing 3634]: the values for the inhibition at 20 µM (in assay [1]; at Rac-1; on Rho-A) were 25 to 50%, 51 to 75% and 51 to 75%, respectively.

For the compound `O=C(c1csc2c(O)nc(-c3ccccn3)nc12)N1CCOC(c2ccccc2)C1` (stereo not drawn) [drawing 3655], the inhibition at 20 µM in assay [1] was 1 to 25%; on Rac-1, 25 to 50%; at Rho-A, 51 to 75%.

Regarding `O=C(c1csc2c(O)nc(-c3ccccn3)nc12)N1CCOC(CN2CCOCC2)C1` (stereo not drawn) [drawing 3694], the values for the inhibition at 20 µM (in assay [1]; on Rac-1; at Rho-A) were 1 to 25%, 76 to 100% and 51 to 75%, respectively.

In the case of `N#Cc1ccc(CCNC(=O)c2csc3nc(-c4ccccn4)nc(N4CCOCC4)c23)cc1` [drawing 3639], the inhibition at 20 µM fell in the range of 1 to 25% in assay [1], 25 to 50% at Rac-1 and 25 to 50% on Rho-A.

Consider `COc1cnc(C2CCCN2)nc1O` (stereo not drawn) [drawing 3788], for which the inhibition at 20 µM was 0% in assay [1], 0% at Rac-1 and 1 to 25% on Rho-A.

As for `O=C(c1csc2c(O)nc(-c3ccccn3)nc12)N1CCN(c2ccc(O)c(Cl)c2)CC1` [drawing 3692], the inhibition at 20 µM in assay [1] fell in the range of 51 to 75%; at Rac-1, 76 to 100%; on Rho-A it was 76 to 100%.
